According to patent US4945102A, “Heterocyclic derivatives and radiosensitizing agents and antiviral agents comprising same as their active component” (Pola Chemical Industries Inc., Japan, priority 1987, dated 1990):
Where two headings read alike, the source gives them in different places.

Columns and labels:
[1] = Acute toxicity test; type: in vivo; conditions: for General Status / LD50 at 336 h: mouse, in vivo; for LD50 at 336 h: ICR male mice, 14 days, read-out: LD50/14 (50% death rate over 14 days)
Protocol: Acute toxicity test and other tests regarding radiosensitising ability and antiviral activity were carried out using the compounds of the present invention.
ICR strain male mice of 5 week old were intravenously or intraperitoneally administered with various compounds each dissolved in a physiological saline or in a physiological saline containing 10% DMSO. The mice were observed over 14 days and 50% death rates (LD50/14) were obtained.

[2] = system: single cells of EMT-6; assay: Radiosensitivity test, in vitro test 1 (single cells of EMT-6, hypoxic); type: cell-based; conditions: 1.0 mM, single EMT-6 cells, 60Co gamma rays
Text: Cells used in the test: single cells of EMT-6
Irradiation: ^60 Co - gamma rays
Cell treatment to hypoxia:
A mixture gas of 95% nitrogen and 5% carbon dioxide was passed through cell suspension.
Determined by counting colonies.
Radiosensitivity enhancement ratio (ER): [formula]

[3] = system: Herpes simplex virus type I; assay: Antiviral activity test (cytopathic effect in Vero cells); type: cell-based; design: key: 0: almost all cells are dead; 1: certain effect of test agent with some dead cells; 2: normal; conditions: one day
Protocol: (3) Antiviral activity test Virus: Herpes simplex virus type I Cells: Vero (monkey kidney cells) Culture medium: 2% FBS MEM A sample conditioned to contain 2×10^5 /ml of vero cells was cultured at 37° C. in an atmosphere of 5% CO2 for 1 day to obtain a monolayer sample. The sample was infected by HSV virus diluted with PBS (phosphate buffer). Compound (I) was dissolved in DMSO, then adjusted to have concentrations of 100 μg/ml, 50 μg/ml, 10/μg/ml,5,μ/ml and 1 μg/ml by 2% FBS MEM, and served as test agents. The culture cells were added with each agent separately and incubated at 37° C. in a Co2 incubator for one day. The cytopathic effect was observed under microscope. Cells were stained by crystal violet and scored as follows: 0: almost all cells are dead 1: certain effect of test agent with some dead cells 2: normal The results are shown in Table 3.

[4] = system: Spheroids of EMT-6; assay: Radiosensitivity test, in vitro test 2 (spheroids of EMT-6); type: cell-based; conditions: 1 mM, 37° C. over 30 to 60 minutes, 60Co gamma rays
Protocol: (b) In vitro test 2 Cells used in the test: Spheroids of EMT-6 Irradiation: ^60 Co - gamma rays Tested compound: Compound (3), 1 mM Determination of radiosensitivity enhancement: Six particles of spheroid having a certain size were taken and placed in a culture solution containing compound (3) having a concentration of 1 mM, and incubated at 37° C. over 30 to 60 minutes, followed by irradiation. The spheroids were treated by trypsin and then the enhancement ratio (ER) was obtained by counting colonies.

[5] = system: EMT-6 tumor; assay: Radiosensitivity in vivo test (EMT-6 tumor); design: species or system Balb/c mice; conditions: 200 mg/kg intraperitoneal 20 minutes prior to whole body 60Co irradiation
Protocol: Tested compound: compound (3), 200 mg/kg
Compound (3) dissolved in a physiological saline was intraperitoneally administered 20 minutes prior to irradiation.
Irradiation: ^60 Co - gamma rays, whole body irradiation
Determination of radiosensitivity enhancement:
Enhancement ratio (ER) was obtained from irradiation dose and reduction ratio of tumor cells.

| Compound | Dead/Treated ([1]; intraperitoneal, 720 mg/kg) | Dead/Treated ([1]; intraperitoneal, 860 mg/kg) | General Status ([1]; ip) | LD50 at 336 h ([1]; ip, intraperitoneal) [mg/kg] | Dead/Treated ([1]; intraperitoneal, 600 mg/kg) | Radiosensitivity enhancement ratio (ER) [2] | Dead/Treated ([1]; intravenous, 720 mg/kg) | Dead/Treated ([1]; intravenous, 860 mg/kg) | General Status ([1]; iv) | LD50 at 336 h ([1]; intravenous) [mg/kg] | cytopathic effect score ([3]; 1 μg/ml) | cytopathic effect score ([3]; 5 μg/ml) | cytopathic effect score ([3]; 10 μg/ml) | cytopathic effect score ([3]; 50 μg/ml) | cytopathic effect score ([3]; 100 μg/ml) | enhancement ratio (ER) [4] | enhancement ratio (ER) [5] |
| --- | --- | --- | --- | --- | --- | --- | --- | --- | --- | --- | --- | --- | --- | --- | --- | --- | --- |
| CC(=O)OCC(COC(C)=O)OCn1ccnc1[N+](=O)[O-] [(1), 1-[2-acetoxy-1-(acetoxymethyl)ethoxy]methyl-2-nitroimidazol] | 0/2 | 0/2 | Calmed down | > 860 | – | – | – | – | – | – | – | – | – | – | – | – | – |
| CC(=O)OCC(COC(C)=O)OCn1cnc([N+](=O)[O-])n1 [(2), 1-[2-acetoxy-1-(acetoxymethyl)ethoxy]methyl-3-nitro-1,2,4-triazol] | 0/2 | 2/2 | – | 790 | 0/2 | – | – | – | – | – | – | – | – | – | – | – | – |
| O=[N+]([O-])c1ncn(COC(CO)CO)n1 [(4), 1-[2-hydroxy-1-(hydroxymethyl)ethoxy]methyl-3-nitro-1,2,4-triazol] | – | – | – | – | – | 1.50 | 0/2 | 1/2 | Calmed down | 860 | 0 | 0 | 1 | 2 | 2 | – | – |
| O=[N+]([O-])c1nccn1COC(CO)CO [Compound (3), 1-[2-hydroxy-1-(hydroxymethyl)ethoxy]methyl-2-nitroimidazol] | – | – | – | – | – | 1.70 | 0/2 | 0/2 | Calmed down | > 860 | 0 | 0 | 1 | 2 | 2 | 1.55 | 1.55 |
